Measured values published in article PMC10004157.

SMILES | melting point [°C]
C[C@H](CO)Nc1nc(SCc2cccc(F)c2F)nc2cncc(Cl)c12 [Compound 9, (2R)-2-[(5-Chloro-2-(2,3-difluorobenzylmercapto)-pyrido[3,4-d]pyrimidine-4-yl)amino]propanol] | 146 to 148
C[C@H](CO)Nc1nc(SCc2cccc(F)c2F)nc2cnc(Cl)cc12 [Compound 16a, (2R)-2-[(6-Chloro-2-(2,3-difluorobenzylmercapto)-pyrido[3,4-d]pyrimidine-4-yl)amino]propanol] | 211 to 213
C[C@H](CO)Nc1nc(SCc2cccc(F)c2F)nc2cnc(-n3ccnc3)cc12 [Compound 16b, (2R)-2-[(6-Imidazolyl-2-(2,3-difluorobenzylmercapto)-pyrido[3,4-d]pyrimidine-4-yl)amino]propanol] | 245 to 247
C[C@H](CO)Nc1nc(SCc2cccc(F)c2F)nc2cnc(-c3ccccc3)cc12 [Compound 17a, (2R)-2-[(2-(2,3-Difluorobenzylmercapto)-6-phenyl-pyrido[3,4-d]pyrimidine-4-yl)amino]propanol] | 202 to 204
C[C@H](CO)Nc1nc(SCc2cccc(F)c2F)nc2cnc(-c3ccco3)cc12 [Compound 17b, (2R)-2-[(2-(2,3-Difluorobenzylmercapto)-6-(2-furanyl)-pyrido[3,4-d]pyrimidine-4-yl)amino]propanol] | 163 to 165
Cc1ccc(-c2cc3c(N[C@H](C)CO)nc(SCc4cccc(F)c4F)nc3cn2)o1 [Compound 17c, (2R)-2-[(2-(2,3-Difluorobenzylmercapto)-6-(5-methylfuran-2-yl)-pyrido[3,4-d]pyrimidine-4-yl)amino]propanol] | 162 to 164
C[C@H](CO)Nc1nc(SCc2cccc(F)c2F)nc2cnc(-c3cccs3)cc12 [Compound 17d, (2R)-2-[(2-(2,3-Difluorobenzylmercapto)-6-(2-thienyl)-pyrido[3,4-d]pyrimidine-4-yl)amino]propanol] | 176 to 178
C[C@H](CO)Nc1nc(SCc2cccc(F)c2F)nc2cnc(N)cc12 [Compound 21, (2R)-2-[(6-Amino-2-(2,3-difluorobenzylmercapto)-pyrido[3,4-d]pyrimidine-4-yl)amino]propanol] | 174 to 176
CC[C@H](CO)Nc1nc(SCc2cccc(F)c2F)nc2cnccc12 [Compound 24a, (2R)-2-[(2-(2,3-Difluorobenzylmercapto)-pyrido[3,4-d]pyrimidine-4-yl)amino]butanol] | 174 to 176
CC(C)(CO)Nc1nc(SCc2cccc(F)c2F)nc2cnccc12 [Compound 24b, 2-[(2-(2,3-Difluorobenzylmercapto)-pyrido[3,4-d]pyrimidine-4-yl)amino]-2-methyl-propan-1-ol] | 166 to 168
OCC(O)CNc1nc(SCc2cccc(F)c2F)nc2cnccc12 (stereo not drawn) [Compound 24c, 3-[(2-(2,3-Difluorobenzylmercapto)-pyrido[3,4-d]pyrimidine-4-yl)amino]propan-1,2-diol] | 156 to 158
OCCNc1nc(SCc2cccc(F)c2F)nc2cnccc12 [Compound 24d, 3-[(2-(2,3-Difluorobenzylmercapto)-pyrido[3,4-d]pyrimidine-4-yl)amino]ethanol] | 181 to 183
OCCOc1nc(SCc2cccc(F)c2F)nc2cnccc12 [Compound 24e, 3-[(2-(2,3-Difluorobenzylmercapto)-pyrido[3,4-d]pyrimidine-4-yl)oxy]ethanol] | 181 to 183
C[C@H](CO)Nc1nc(NCc2cccc(F)c2F)nc2cnccc12 [Compound 26a, (2R)-2-[(2-(2,3-Difluorobenzylamino)-pyrido[3,4-d]pyrimidine-4-yl)amino]propanol] | 136 to 140
C[C@H](CO)Nc1nc(OCc2cccc(F)c2F)nc2cnccc12 [Compound 26b, (2R)-2-[(2-(2,3-Difluorobenzyloxy)-pyrido[3,4-d]pyrimidine-4-yl)amino]propanol] | 167 to 169
C[C@H](CO)Nc1nc(Sc2ccccc2)nc2cnccc12 [Compound 26c, (2R)-2-[(2-(Phenylmercapto)-pyrido[3,4-d]pyrimidine-4-yl)amino]propanol] | 193 to 196
C[C@H](CO)Nc1nc(SCCc2ccccc2)nc2cnccc12 [Compound 26d, (2R)-2-[(2-(Phenylethylmercapto)-pyrido[3,4-d]pyrimidine-4-yl)amino]propanol] | 182 to 184
CCCCCCSc1nc(N[C@H](C)CO)c2ccncc2n1 [Compound 26e, (2R)-2-[(2-(Hexylmercapto)-pyrido[3,4-d]pyrimidine-4-yl)amino]propanol] | 147 to 149
